What was measured:
[1] = Evaluation of conversion rate to active form in BALB/c mouse plasma (Experimental Example 3); assay type: in vitro ADME; conditions: BALB/c, mouse, 0.2 μmol/L
Description: (§1) For Example 1, Example 2, Example 3, Example 4, Example 5, Example 6, Comparative Example 3, Comparative Example 4, Comparative Example 6, Comparative Example 7, Comparative Example 8, Comparative Example 9, Comparative Example 10 and Comparative Example 12, the attrition rate of the test compound and the conversion rate of the test compound to Alvocidib in human plasma and BALB/c mouse plasma were calculated by the following method.
(§2) The test compound was added to human plasma or BALB/c mouse plasma at a concentration of 0.2 μmol/L, and incubated at 37° C. The peak areas of the test compound and Alvocidib in the sample were determined by LC-MS/MS after 0, 30 and 60 minutes for Example 1, Example 2, Example 3, Example 4, Example 5 and Example 6, and after 0, 60 and 120 minutes for Comparative Example 3, Comparative Example 4, Comparative Example 6, Comparative Example 7, Comparative Example 8, Comparative Example 9, Comparative Example 10 and Comparative Example 12, and the attrition rate of the test compound and the conversion rate of the test compound to Alvocidib were calculated by the following formula. Attrition rate of test compound (%):(peak area of test compound in sample/peak area of test compound in sample after 0 minute)×100 Conversion rate to Alvocidib (%):(peak area of Alvocidib in sample/peak area of Alvocidib in reaction solution containing 0.2 μmol/L Alvocidib)×100
(§3) The measurement conditions for LC-MS/MS are as follows. • HPLC: Prominence system (Shimadzu Corporation) • MS/MS: • Example 1, Example 2, Example 3, Example 4, Example 5, Example 6, Comparative Example 8 (mouse), Comparative Example 10 (mouse) and Comparative Example 12 (mouse) • QTRAP5500 (SCIEX) • Comparative Example 6, Comparative Example 7, Comparative Example 8 (human), Comparative Example 9, Comparative Example 10 (human) and Comparative Example 12 (human) • 4000 QTRAP (SCIEX) • column: • other than Example 3 and Example 4 • Cadenza CD-C18, 3 μm, 50×2 mm (Imtakt Corporation) • Example 3 and Example 4 • Kinetex C8, 2.6 μm, 50×2.1 mm (Phenomenex) • column temperature: 40° C. • mobile phase: • A: water containing 0.1% formic acid • B: acetonitrile containing 0.1% formic acid • A/B (min): • Example 1, Example 2, Example 5, Example 6, Comparative Example 8 (mouse), Comparative Example 10 (mouse) and Comparative Example 12 (mouse) • 90/10(0)→40/60(5.0)→10/90(5.1)→10/90(6.5)→90/10(6.6)→90/10(8.0) • Example 3 and Example 4 • 86/14(0)→86/14(3.5)→10/90(5.5)→10/90(6.5)→86/14(6.6)→86/14(9.5) • Comparative Example 6, Comparative Example 7, Comparative Example 8 (human), Comparative Example 9, Comparative Example 10 (human) and Comparative Example 12 (human) • 90/10(0)→10/90(2.5)→10/90(3.5)→90/10(3.6)→90/10(5.0) • flow rate: 0.4 mL/min • detection: ESI (positive mode) • injection: 1 to 5 μL

[2] = Evaluation of conversion rate to active form in buffer solution (Experimental Example 1); assay type: physicochemical; conditions: for Conversion to Alvocidib at pH 7.4: pH 7.4, 37° C., up to 3 hours
How it was run: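 25 umol/L cpd, 37° C; 50 mM citrate pH 5.0/5.5, 50 mM phosphate pH 6.0/6.5/7.0/7.4. HPLC at 0–3 h: residual rate and Alvocidib production rate.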

[3] = Evaluation of conversion rate to active form in human plasma (Experimental Example 3); assay type: in vitro ADME; conditions: human, 0.2 μmol/L
Description: as §1, §2, §3

For CC(C)[C@H](N)C(=O)O[C@@H]1CN(C)CC[C@@H]1c1c(O)cc(O)c2c(=O)cc(-c3ccccc3Cl)oc12 [Comparative Example 10, reference compound], the “Production rate (%) of Alvocidib” value ([1]; 0 min) was 1%, the “Residual rate (%) of test compound” value ([1]; 0 min) was 100% and the “Production rate (%) of Alvocidib” value ([1]; 60 min) was 5%. For the same molecule, the “Residual rate (%) of test compound” value ([1]; 60 min) was 84%, the “Production rate (%) of Alvocidib” value ([1]; 120 min) was 6% and the “Residual rate (%) of test compound” value ([1]; 120 min) was 89%. For the same molecule, the “Production rate of Alvocidib” value ([2]; pH5.0, 0 hr) was 2.0%, the Residual rate ([2]; pH5.0, 0 hr) was 93.4% and the “Production rate of Alvocidib” value ([2]; pH5.0, 0.5 hr) was 2.3%. The Residual rate ([2]; pH5.0, 0.5 hr) was 93.2%, the “Production rate of Alvocidib” value ([2]; pH5.0, 1 hr) was 2.7% and the Residual rate ([2]; pH5.0, 1 hr) was 92.7%. The “Production rate of Alvocidib” value ([2]; pH5.0, 2 hr) was 3.7%, the Residual rate ([2]; pH5.0, 2 hr) was 91.4% and the “Production rate of Alvocidib” value ([2]; pH5.0, 3 hr) was 4.2%. For the same molecule, the Residual rate ([2]; pH5.0, 3 hr) was 91.2%, the “Production rate of Alvocidib” value ([2]; pH5.5, 0 hr) was 2.0% and the Residual rate ([2]; pH5.5, 0 hr) was 93.2%. The “Production rate of Alvocidib” value ([2]; pH5.5, 0.5 hr) was 2.7%, the Residual rate ([2]; pH5.5, 0.5 hr) was 92.7% and the “Production rate of Alvocidib” value ([2]; pH5.5, 1 hr) was 3.7%. The Residual rate ([2]; pH5.5, 1 hr) was 91.7%, the “Production rate of Alvocidib” value ([2]; pH5.5, 2 hr) was 5.5% and the Residual rate ([2]; pH5.5, 2 hr) was 89.9%. The “Production rate of Alvocidib” value ([2]; pH5.5, 3 hr) was 6.8%, the Residual rate ([2]; pH5.5, 3 hr) was 88.7% and the “Production rate of Alvocidib” value ([2]; pH6.0, 0 hr) was 2.1%. The Residual rate ([2]; pH6.0, 0 hr) was 93.1%, the “Production rate of Alvocidib” value ([2]; pH6.0, 0.5 hr) was 4.4% and the Residual rate ([2]; pH6.0, 0.5 hr) was 90.7%. For the same molecule, the “Production rate of Alvocidib” value ([2]; pH6.0, 1 hr) was 7.2%, the Residual rate ([2]; pH6.0, 1 hr) was 88.6% and the “Production rate of Alvocidib” value ([2]; pH6.0, 2 hr) was 12.8%. The Residual rate ([2]; pH6.0, 2 hr) was 83.1%, the “Production rate of Alvocidib” value ([2]; pH6.0, 3 hr) was 16.3% and the Residual rate ([2]; pH6.0, 3 hr) was 79.7%. The “Production rate of Alvocidib” value ([2]; pH6.5, 0 hr) was 2.3%, the Residual rate ([2]; pH6.5, 0 hr) was 93.2% and the “Production rate of Alvocidib” value ([2]; pH6.5, 0.5 hr) was 5.1%. For the same molecule, the Residual rate ([2]; pH6.5, 0.5 hr) was 90.9%, the “Production rate of Alvocidib” value ([2]; pH6.5, 1 hr) was 8.8% and the Residual rate ([2]; pH6.5, 1 hr) was 87.4%. For the same molecule, the “Production rate of Alvocidib” value ([2]; pH6.5, 2 hr) was 15.6%, the Residual rate ([2]; pH6.5, 2 hr) was 81.1% and the “Production rate of Alvocidib” value ([2]; pH6.5, 3 hr) was 20.2%. For the same molecule, the Residual rate ([2]; pH6.5, 3 hr) was 76.6%, the “Production rate of Alvocidib” value ([2]; pH7.0, 0 hr) was 2.1% and the Residual rate ([2]; pH7.0, 0 hr) was 93.2%. For the same molecule, the “Production rate of Alvocidib” value ([2]; pH7.0, 0.5 hr) was 5.2%, the Residual rate ([2]; pH7.0, 0.5 hr) was 92.3% and the “Production rate of Alvocidib” value ([2]; pH7.0, 1 hr) was 8.5%. For the same molecule, the Residual rate ([2]; pH7.0, 1 hr) was 88.2%, the “Production rate of Alvocidib” value ([2]; pH7.0, 2 hr) was 15.5% and the Residual rate ([2]; pH7.0, 2 hr) was 81.5%. The “Production rate of Alvocidib” value ([2]; pH7.0, 3 hr) was 19.5%, the Residual rate ([2]; pH7.0, 3 hr) was 75.7% and the “Production rate of Alvocidib” value ([2]; pH7.4, 0 hr) was 2.1%. The Residual rate ([2]; pH7.4, 0 hr) was 93.2%, the “Conversion to Alvocidib at pH 7.4” value [2] was “slowly converted to Alvocidib” and the “Production rate of Alvocidib” value ([2]; pH7.4, 0.5 hr) was 4.6%. For the same molecule, the Residual rate ([2]; pH7.4, 0.5 hr) was 92.2%, the “Production rate of Alvocidib” value ([2]; pH7.4, 1 hr) was 7.5% and the Residual rate ([2]; pH7.4, 1 hr) was 89.3%. The “Production rate of Alvocidib” value ([2]; pH7.4, 2 hr) was 13.3%, the Residual rate ([2]; pH7.4, 2 hr) was 82.9% and the “Production rate of Alvocidib” value ([2]; pH7.4, 3 hr) was 17.1%. For the same molecule, the Residual rate ([2]; pH7.4, 3 hr) was 78.4%, the “Production rate (%) of Alvocidib” value ([3]; 0 min) was 0% and the “Residual rate (%) of test compound” value ([3]; 0 min) was 100%. The “Production rate (%) of Alvocidib” value ([3]; 60 min) was 2%, the “Residual rate (%) of test compound” value ([3]; 60 min) was 104% and the “Production rate (%) of Alvocidib” value ([3]; 120 min) was 3%. For the same molecule, the “Residual rate (%) of test compound” value ([3]; 120 min) was 105%.

For CN1CC[C@H](c2c(O)cc(O)c3c(=O)cc(-c4ccccc4Cl)oc23)[C@H](OC(=O)c2ccccc2F)C1 [Comparative Example 12], the “Production rate (%) of Alvocidib” value ([1]; 0 min) was 2%, the “Residual rate (%) of test compound” value ([1]; 0 min) was 100% and the “Production rate (%) of Alvocidib” value ([1]; 60 min) was 19%. For the same molecule, the “Residual rate (%) of test compound” value ([1]; 60 min) was 85%, the “Production rate (%) of Alvocidib” value ([1]; 120 min) was 27% and the “Residual rate (%) of test compound” value ([1]; 120 min) was 76%. For the same molecule, the “Production rate of Alvocidib” value ([2]; pH7.4, 0 hr) was 1.4%, the Residual rate ([2]; pH7.4, 0 hr) was 98.0% and the “Conversion to Alvocidib at pH 7.4” value [2] was “slowly converted to Alvocidib”. The “Production rate of Alvocidib” value ([2]; pH7.4, 0.5 hr) was 1.5%, the Residual rate ([2]; pH7.4, 0.5 hr) was 97.5% and the “Production rate of Alvocidib” value ([2]; pH7.4, 1 hr) was 1.6%. For the same molecule, the Residual rate ([2]; pH7.4, 1 hr) was 97.6%, the “Production rate of Alvocidib” value ([2]; pH7.4, 2 hr) was 1.8% and the Residual rate ([2]; pH7.4, 2 hr) was 97.6%. The “Production rate (%) of Alvocidib” value ([3]; 0 min) was 0%, the “Residual rate (%) of test compound” value ([3]; 0 min) was 100% and the “Production rate (%) of Alvocidib” value ([3]; 60 min) was 23%. For the same molecule, the “Residual rate (%) of test compound” value ([3]; 60 min) was 74%, the “Production rate (%) of Alvocidib” value ([3]; 120 min) was 32% and the “Residual rate (%) of test compound” value ([3]; 120 min) was 58%.

— patent US12617779B2, “Self degradation-type CDK9 inhibitor prodrug and liposome encapsulating same” (Sumitomo Pharma Co., Ltd., priority 2021, dated 2026)
